Our source for the ED50, Inhibition and minimal effective dose values is ChEMBL document CHEMBL1125625, “Antinociceptive (aminoalkyl)indoles” (J Med Chem, 1991).

The ED50 is the midpoint of the dose-response relation. For orientation: Inhibition means the percentage by which the read-out fell short of the control. Read a low Inhibition as a weak effect.

Common to all, as to format: functional
Experiment [1] deals with Mus musculus. The experiment is described as follows: Acetylcholine writhing inhibitory activity was measured in mouse (in vivo) by iv administration.
Experiment [2] has as its system Mus musculus. The experiment is described as follows: Acetylcholine writhing inhibitory activity for the compound was measured in mouse (in vivo) by peroral administration at 1000 uM. In general terms: Writhing tests count abdominal constrictions after an irritant is injected.
The test system of experiment [3] is Mus musculus. The experiment is described as follows: Acetylcholine writhing inhibitory activity for the compound was measured in vivo in mouse by peroral administration at 20 uM.
The test system of experiment [4] is Mus musculus. Put plainly: Acetylcholine writhing inhibitory activity measured in vivo in mouse by peroral administration. As to conditions: po.
Experiment [5] relates to Mus musculus. The experiment is described as follows: Acetylcholine writhing inhibitory activity for the compound was measured in mouse (in vivo) by iv administration at 30 uM.
Experiment [6] concerns Mus musculus. The experiment is described as follows: Acetylcholine writhing inhibitory activity for the compound was measured in vivo in mouse by peroral administration at 238 uM.
In experiment [7] the test system is Mus musculus. Put plainly: Acetylcholine writhing inhibitory activity for the compound was measured in vivo in mouse by peroral administration at 300 uM.
Experiment [8] relates to Rattus norvegicus. Put plainly: Intra arterial bradykinin activity for the compound was measured in rat (in vivo) by peroral administration.
Experiment [9] relates to Rattus norvegicus. The experiment is described as follows: Adjuvant arthritis paw flexion activity for the compound was measured in rat (in vivo) by peroral administration. To be noted: po.
The test system of experiment [10] is Rattus norvegicus. The experiment is described as follows: Acetic acid writhing inhibitory activity for the compound was measured in rat (in vivo) by peroral administration. To be noted: po.
For experiment [11], the system named is Mus musculus. Put plainly: Acetylcholine writhing inhibitory activity for the compound was measured in vivo in mouse by peroral administration at 100 uM.
For experiment [12], the system named is Rattus norvegicus. The experiment is described as follows: Randall-Selitto activity for the compound was measured in rat (in vivo) by peroral administration. To be noted: po, read-out: MED.

Consider `Cc1c(C(=O)c2cccc3ccccc23)c2ccccc2n1CCN1CCOC(O)C1` (stereo unspecified), for which the ED50 in the experiment with Mus musculus [1] was determined as 9.7 mg/kg. This compound yielded an Inhibition with Mus musculus [2] of 50%.
As for `Cc1cccc(C(=O)c2c(C)n(CCN3CCOCC3)c3ccccc23)c1`, the Inhibition with Mus musculus [3] is recorded as 20%.
`CSc1ccc(C(=O)c2c(C)n(CCN3CCOCC3)c3ccccc23)cc1` registered an ED50 with Mus musculus [4] of 22 mg/kg.
The same measure, in the same setting: under `COc1ccc(C(=O)c2c(C)n(CCN3CCNCC3)c3ccccc23)cc1` stands 21 mg/kg.
For the compound `O=C(c1cccc2ccccc12)c1cn(CCN2CCOCC2)c2ccccc12`, the ED50 in the experiment with Mus musculus [1] is 0.12 mg/kg; in the experiment on Mus musculus [4], 23 mg/kg.
As to `COc1ccc(C(=O)c2c(C)n(CCN3CCCC(O)C3)c3ccccc23)cc1` (stereo unspecified), the 50% effect level in the experiment on Mus musculus [4] (ED50) was put at a dose of 26 mg/kg.
Same read-out and setting: the same measure for `COc1ccc(C(=O)c2c(C)n(CCN(C)C)c3ccccc23)cc1`: 65 mg/kg; for `CC(C(=O)O)n1cc(C(=O)c2ccccc2F)c2ccccc21` (stereo unspecified): 8 mg/kg.
In the experiment with Mus musculus [5], `Cc1c(C(=O)c2csc3ccccc23)c2ccccc2n1CCN1CCOCC1` displayed an Inhibition of 60%.
`COc1ccc(C(=O)c2c(C)n(CCN3CCC(O)CC3)c3ccccc23)cc1` displayed an ED50 in the experiment with Mus musculus [4] of 68 mg/kg.
Still for that read-out and setting: under `Cc1c(C(=O)c2ccccc2F)c2ccccc2n1C(C)C(=O)O` (stereo unspecified) stands 12 mg/kg; under `CC(CN1CCOCC1)n1cc(C(=O)c2ccccc2F)c2ccccc21` (stereo unspecified), 19 mg/kg.
In the experiment on Mus musculus [6], `Cc1c(C(=O)c2ccc(F)cc2)c2ccccc2n1CCN1CCOCC1` gave an Inhibition of 60%.
As for `COc1ccc(C(=O)c2c(C)n(CCN3CCCCC3)c3ccccc23)cc1`, in the experiment on Mus musculus [7], the Inhibition came to 71%.
In the experiment with Mus musculus [4], `Cc1c(C(=O)c2ccccc2F)c2ccccc2n1[C@H](C)CN1CCOCC1` had an ED50 of 9 mg/kg.
As for `C[C@@H](C(=O)O)n1cc(C(=O)c2ccccc2F)c2ccccc21`, the ED50 in the experiment on Mus musculus [1] stood at 38 mg/kg.
As for `C[C@H](CN1CCOCC1)n1cc(C(=O)c2ccccc2F)c2ccccc21`, it took a dose of 11 mg/kg to reach the 50% effect level with Mus musculus [4] (ED50).
In the experiment with Mus musculus [1], `C[C@H](C(=O)O)n1cc(C(=O)c2ccccc2F)c2ccccc21` yielded an ED50 of 5 mg/kg.
As to `C[C@@H](CN1CCOCC1)n1cc(C(=O)c2ccccc2F)c2ccccc21`, it took a dose of 48 mg/kg to reach the 50% effect level in the experiment with Mus musculus [4] (ED50).
Still for that read-out and setting: the same measure for `CCNCCn1c(C)c(C(=O)c2ccc(OC)cc2)c2ccccc21`: 46 mg/kg; for `CCc1c(C(=O)c2ccc(OC)cc2)c2ccccc2n1CCN1CCOCC1`: 82 mg/kg; for `COc1ccc(C(=O)c2c(C)n(CCCCCCN3CCOCC3)c3ccccc23)cc1`: 28 mg/kg.
`Cc1c(C(=O)c2cccc3ccccc23)c2ccccc2n1CCN1CCOCC1`: the 50% effective dose (ED50) with Mus musculus [1] was 0.19 mg/kg; with Rattus norvegicus [8] it was 52 mg/kg; in the experiment with Rattus norvegicus [9], 30 mg/kg; with Rattus norvegicus [10], 38 mg/kg.
Compound `COc1ccc(C(=O)c2c(C)n(CC(=O)O)c3ccccc23)cc1` returned an ED50 with Mus musculus [4] of 173 mg/kg.
Still for that read-out and setting: under `CCN(CC)CCn1c(C)c(C(=O)c2ccc(OC)cc2)c2ccccc21` stands 50 mg/kg.
In turn, `Cc1c(C(=O)c2ccccc2F)c2ccccc2n1[C@@H](C)CN1CCOCC1` had an ED50 with Mus musculus [4] of 37 mg/kg.
`Cc1c(C(=O)c2cccc(F)c2)c2ccccc2n1CCN1CCOCC1` had an Inhibition in the experiment on Mus musculus [11] of 30%.
Compound `COc1ccc(C(=O)c2c(C)n(CCCCCN3CCOCC3)c3ccccc23)cc1` displayed an ED50 with Mus musculus [4] of 15 mg/kg.
Same read-out and setting: under `Cc1c(C(=O)c2ccccc2F)c2ccccc2n1CCN1CCOCC1` stands 79 mg/kg; under `COc1ccc(C(=O)c2c(C)n(CCCCN3CCOCC3)c3ccccc23)cc1`, 56 mg/kg.
For the compound `O=C(c1ccccc1)c1ccc2n1CCC2C(=O)O` (stereo unspecified) [KETOROLAC], the 50% effect level in the experiment on Mus musculus [4] (ED50) was put at a dose of 1.1 mg/kg.
`COc1ccc(C(=O)c2c(C)n(CCN3CCOCC3)c3ccccc23)cc1` [PRAVADOLINE]: the ED50 worked out at 41 mg/kg in the experiment on Mus musculus [4], 120 mg/kg with Rattus norvegicus [8], 100 mg/kg in the experiment with Rattus norvegicus [9] and 15 mg/kg with Rattus norvegicus [10]. The minimal effective dose in the experiment with Rattus norvegicus [12] is 1 mg/kg.
